In one experiment the test system is Jurkat cells. Description: Jurkat cell adhesion system (adhesion to immobilized human fibronectin, PMA-stimulated). Type of experiment: cell-based. Conditions: concentration inhibiting by 50% the PMA-stimulated increase in the number of adhered Jurkat cells on human fibronectin; 45-60 minutes, 37° C. As for the experimental part:
Evaluation of Compounds in Jurkat Cell Adhesion System
<Immobilization of Human Fibronectin in 96-Well Plate>
Human fibronectin (Becton Dickinson Biosciences) was diluted with phosphate-buffered saline (hereinafter abbreviated as PBS; Sigma) to 0.1-0.01 μg/ml, and the diluted solution was added to a 96-well plate (Becton Dickinson) at 50 μl/well, and allowed to stand overnight at 4° C. On the following day, the supernatant was removed from the plate, and then PBS containing 1% bovine serum albumin (hereinafter abbreviated as BSA; Sigma) was added thereto at 100 μl/well and incubation was performed at 37° C. for 2 hours in a CO2 incubator (Hirasawa).
The supernatant was removed from each plate and Jurkat cells suspended in RPMI-1640 (Sigma) containing 1 mg/ml BSA were added at 80 μl/well for 2.5×10^5 cells/well. The compound diluted to different concentrations with RPMI-1640 containing 1 mg/ml BSA was immediately added at 10 μl/well, and then 100 nM phorbol myristate acetate (hereinafter abbreviated as PMA; Sigma) in RPMI-1640 containing 1 mg/ml BSA was added at 10 μl/well and the plate was incubated in a CO2 incubator at 37° C. for 45-60 minutes. The supernatant was removed from the plate and each well was washed several times with 100 μl/well of RPMI-1640, after which 50 mM citrate buffer (pH 5.0) containing 3.75 mM p-nitrophenol-N-acetyl-β-D-glucosaminide (Sigma) and 0.25% Triton X-100 (Sigma) were added at 60 μl/well, and the mixture was placed in a CO2 incubator and incubated at 37° C. for 45 minutes. After incubation, 50 mM glycine buffer (pH 10.4) containing 5 mM EDTA was added at 90 μl/well, and the absorbance at 405 nm was measured with an EL340 Automated Microplate Reader (BIO-TEK) to determine the adhered cell count. The concentration of each compound which inhibited the increase in the number of adhered cells by the PMA-stimulation by 50% was recorded as the IC50 (μM).

For experiment [1], the system named is human peripheral blood neutrophils. Put plainly: Human peripheral blood neutrophil adhesion system (adhesion to immobilized HUVEC, PMA-stimulated). In kind it is cell-based. The settings on record: 0.75 h, concentration inhibiting by 50% the PMA-stimulated increase in the number of adhered BCECF-AM labeled neutrophils on HUVEC immobilized plate, 45 minutes, 37° C. The method, then:
Evaluation of Compounds in Human Peripheral Blood Neutrophil Adhesion System
<Preparation of Human Peripheral Blood Neutrophils>
To a plastic centrifugation tube containing 100 units of heparin sodium (Shimizu Pharmaceutical) was added 25 ml of fresh blood sampled from a healthy human. After adding and mixing therewith 8 ml of physiological saline (Otsuka Pharmaceutical) containing 6% Dextran (Nacalai), the mixture was allowed to stand at room temperature for 45 minutes for sedimentation of the erythrocytes. The resultant supernatant was transferred to another plastic centrifugation tube and combined with an equivalent volume of phosphate-buffered saline (hereinafter abbreviated as PBS; Sigma), and then centrifuged at 1600 rpm for 7 minutes at room temperature. The obtained hematocyte fraction was suspended in 4 ml of PBS, and the suspension was superposed on 4 ml of Ficoll-Paque™ PLUS (Amersham Biosciences). The resultant bilayer liquid was centrifuged at 2000 rpm for 30 minutes at room temperature, after which the supernatant was removed and the precipitate was suspended in 10 ml of PBS and centrifuged at 1200 rpm for 7 minutes, and the supernatant was removed. The resulting precipitate was suspended in 0.5 ml of PBS again, and then 10 ml of distilled water (Otsuka Pharmaceutical) was added, 0.5 ml of an aqueous solution containing 3 M NaCl was immediately added to restore isotonicity, the mixture was centrifuged at 1200 rpm for 7 minutes, and the obtained precipitate was suspended in PBS containing 1 mg/ml bovine serum albumin (hereinafter abbreviated as BSA; Sigma) again and stored in ice until being used for the experiment.
<Fluorescent Labeling of Human Peripheral Blood Neutrophils>
The obtained neutrophils were suspended in PBS containing 1 mg/ml BSA at 2×10^7 cells/ml. BCECF-AM (Dojin) was added to a final concentration of 5 μM, and the mixture was incubated at 37° C. for 45 minutes. It was then rinsed twice with PBS containing 1 mg/ml BSA by centrifugation, suspended again in PBS containing 1 mg/ml BSA at 5×10^7 cells/ml, and stored in ice until use.
<Preparation of HUVEC Immobilized Plate>
Human umbilical vein endothelial cells (hereinafter abbreviated as HUVEC) were suspended in MCDB131 medium (Chlorella Industries) containing 10% fetal calf serum and 30 μg/ml endothelial cell growth supplement (Becton Dickinson Bioscience). The suspension was added at 7.5×10^3 cells/well to a 96-well plate (Iwaki) immobilized with type I collagen, and cultured for 3 days in a CO2 incubator (Hirasawa). Upon confirming confluency of the cells, the supernatant was discarded, the plate was rinsed twice with PBS, and then PBS containing 0.1% glutaraldehyde (Kanto Kagaku) was added at 100 μl/well and the HUVECs were immobilized for 5 minutes. The supernatant was discarded and the plate was washed twice with PBS, and then PBS was added at 100 μl/well and the mixture was stored at 4° C. until use.
To 6.5 ml of RPMI-1640 medium (Sigma) containing 1 mg/ml of BSA were added 0.5 ml of a suspension of BCECF-AM labeled neutrophils at 5×10^7/ml stored in ice, which was mixed, and the mixture was added at 80 μl/well to a HUVEC immobilized plate. To this plate were immediately added 10 μl/well of a solution of the compound diluted at different concentrations with RPMI-1640 containing 1 mg/ml BSA, and 10 μl/well of 100 nM phorbol myristate acetate (hereinafter abbreviated as PMA; Sigma) in RPMI-1640 containing 1 mg/ml BSA, and the mixture was incubated in a CO2 incubator at 37° C. for 45 minutes. The supernatant was removed from the plate, which was then washed several times with RPMI-1640 at 100 μl/well, and then PBS containing 0.1% NP-40 (Calbiochem) was added thereto at 100 μl/well and the fluorescent intensity was measured with and ARVO™SX 1420 multi label counter (Wallac) to determine the number of adhered cells. […]

A further experiment deals with Balb/c mice. Description: DSS-induced colitis model. In kind it is in vivo. Conditions: male Balb/c mice; 1-3% DSS for 5-7 days; 30 mg/kg orally once a day for 5-7 successive days. An excerpt:
Evaluation of Compounds in DSS-Induced Colitis Model
A 1-3% solution of dextran sulfate sodium (hereinafter abbreviated as DSS; ICN) in purified water (Otsuka Pharmaceutical) was fed freely to 6- to 7-week-old male Balb/c mice (Charles River Japan) for 5-7 days to induce colitis. Disease Activity Index (hereinafter abbreviated as DAI) scored based on fecal hardness, blood content in feces and body weight change, the number of neutrophils infiltrating the colon and the length of the colon were used as indexes to evaluate compounds. Each compound was suspended or dissolved in an aqueous solution containing 0.5% methyl cellulose (Wako), and orally administered at 30 mg/kg once a day, for 5-7 successive days.

`CCCN1CCN(c2ccccc2C2CC(C)(C)CC(C)(C)C2)CC1.Cl` [Example 31, 1-Propyl-4-[2-(3,3,5,5-tetramethylcyclohexyl)phenyl]piperazine hydrochloride]: the half-maximal inhibitory concentration (IC50) in the experiment with Jurkat cells came out at 4.5 µM; in experiment [1], 9.5 µM. In addition, the “improvement in comparison with the DSS control group (DAI, number of neutrophils infiltrating the colon, length of the colon)” value in the experiment on Balb/c mice was “particularly good improvement”.

For `CCCCN1CCN(c2ccc(N3CCC(OC)CC3)cc2C2CC(C)(C)CC(C)(C)C2)CC1.Cl` [Example 32, 1-Butyl-4-[4-(4-methoxypiperidin-1-yl)-2-(3,3,5,5-tetramethylcyclohexyl)phenyl]piperazine hydrochloride], the IC50 in the experiment with Jurkat cells came out at 3.6 µM; in experiment [1], 7 µM. Moreover, the “improvement in comparison with the DSS control group (DAI, number of neutrophils infiltrating the colon, length of the colon)” value in the experiment with Balb/c mice is on record as “particularly good improvement”.

Values taken from US20060276465A1, “1,2-di(cyclic) substituted benzene compounds” (Eisai R&D Management Co., Ltd., priority 2003, published 2006).
